Experimental data reported in patent US6284734A, “Inhibitors against prostate-specific antigen” (JCR Pharmaceuticals Co., Ltd., priority 1997, dated 2001).
One block for each sequence: values may come before it. No end group written: not given here.

Legend:
[1] = biological target: T1, PSA (Homo sapiens, UniProt P07288); assay: PSA activity assay with Pro-Phe-Arg-MCA substrate, residual activity in coexistence of peptides; type: biochemical; conditions: enzyme added PSA, 100% without any Peptide
T1 construct: Using PSA as purified from human urine or seminal plasma; from tissue; host or cells: human urine or seminal plasma
T1 sequence (P07288 25-261): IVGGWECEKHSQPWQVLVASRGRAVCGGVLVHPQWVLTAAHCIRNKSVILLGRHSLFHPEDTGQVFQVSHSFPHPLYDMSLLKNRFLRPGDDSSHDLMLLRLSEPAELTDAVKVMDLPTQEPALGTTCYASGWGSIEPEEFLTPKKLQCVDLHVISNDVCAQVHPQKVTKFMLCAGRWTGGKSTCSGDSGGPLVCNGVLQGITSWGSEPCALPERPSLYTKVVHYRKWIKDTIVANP
Method: Then, investigation was conducted into whether or not these peptides act to inhibit the PSA activity.
While using […] of 100 μM or 10 μM Pro-Phe-Arg-MCA (supplied by Peptide Research. Institute of Japan) as a substrate, 0.1 ml of 100 μM of each of Peptides 1 to 5 was mixed with the substrate and 0.7 ml of 0.1M Tris-hydrochloride buffer (pH 8.0) to allow the reaction to proceed at 37° C. for 5 min, followed by addition of 0.1 ml of 0.12 mg/ml PSA solution. The reaction solution was subjected to time-course measurement of fluorescence intensity (Ex380 nm, Em460nm) at 37° C. for 3 min, and the inhibitory activity value was determined from a slope of the straight line. […] In the above experiments, Pro-Phe-Arg-MCA, Peptides 1 to 5 PSA and kallikrein were used after being dissolved in 0.1M Tris-hydrochloride buffer (pH 8.0).
These findings are in good agreement with the fact that PSA a protease belonging to the kallikrein family .

[2] = biological target: T1, PSA; assay: Degradation of r-IGFBP3 by PSA, SDS electrophoresis and Western blotting with densitometry; type: biochemical; conditions: relative to r-IGFBP3 alone (100.0); r-IGFBP3 + PSA 50.0; 4 nmol Peptide 4
Method: And PSA degrades r-IGFB3 into fragments, whereby its degradation process can be confirmed by means of SDS-electrophoresis and Western blotting.
A specimen was prepared by dissolving 0.57 μg of PSA and 2.0 μg of r-IGFBP3 (manufactured by Upstate Co. of USA) in 0.1M Tris-hydrochloride buffer (pH 8.0), followed by reaction at 37° C. for 16 hrs, while another specimen was prepared by dissolving 0.57 μg of PSA, 2.0 μg of r-TGFBP3 (manufactured by Upstate Co. of USA) and 4 nmol of Peptide 4 in 0.1M Tris-hydrochloride buffer (pH 8.0), followed by reaction at 37° C. for 16 hrs. Each of the specimens was subjected to a 4 to 20% gradient gel to conduct SDS electrophoresis under non-reduction in the conditions described by Laemmli et al. (Iqature, 227: 680-685, 1970). After electrophoresis, separated proteins were transferred to a nitrocellulose membrane to carry out Western blotting using anti-IGFBP3 antibody (produced by Biogenesis Co. of USA) as a primary antibody and anti-rabbit antibody (produced by Promega Co. of USA) labeled with horseradish peroxidase (HRP) as a secondary antibody. The HRP activity was detected by chemiluminescence (Renaissance Western Blot Chemiluminescence Reagent, NEN™ produced by Life Science Products Co. of USA), and the protein bands as detected were quantitatively determined by use of a densitometer.

[3] = column A, Substrate:Peptide molar ratio 1:1
[4] = column B, Substrate:Peptide molar ratio 1:10

Sequence: VNASAVSRLRAYLLP [Peptide 1, val(88)-Asn-Ala-Ser-Ala-Val-Ser-Arg-Leu-Arg-Ala-Tyr-Leu-Leu-Pro(102)]
Residual activity rate (%) after addition of Peptides [1, 3]: 107.4%
Residual activity rate (%) after addition of Peptides [1, 4]: 100.7%

Sequence: VSSTHRVSDPKF [Peptide 2, Val(127)-Ser-Ser-Thr-His-Arg-Val-Ser-Asp-Pro-Lys-Phe(138)]
Residual activity rate (%) after addition of Peptides [1, 3]: 87.5%
Residual activity rate (%) after addition of Peptides [1, 4]: 104.8%

Sequence: LNHLKFLNVL [Peptide 3, Leu(194)-Asn-His-Leu-Lys-Phe-Leu-Asn-val-Leu(203)]
Residual activity rate (%) after addition of Peptides [1, 3]: 83.5%
Residual activity rate (%) after addition of Peptides [1, 4]: 73.3%

More lines, now with the values ahead:

Residual activity rate (%) after addition of Peptides [1, 3]: 66.5%
Residual activity rate (%) after addition of Peptides [1, 4]: 46.6%
Residual rate % of the 50 kDa band [2]: 65.1%
Sequence: GFYKKKQSR [Peptide 4, Gly(217)-Phe-Tyr-Lys-Lys-Lys-Gln-Ser-Arg(225)]

Residual activity rate (%) after addition of Peptides [1, 3]: 75.1%
Residual activity rate (%) after addition of Peptides [1, 4]: 84.8%
Sequence: PSKGRKRGFM [Peptide 5, Pro(226)-Ser-Lys-Gly-Arg-Lys-Arg-Gly-Phe-Met(235)]
